According to publication PMC7596511 (Scientific Reports, 2020):
“Also recorded” adds a separate entry of the source.

Assays:
AgamOBP20 = biological target: T1, AgamOBP20 (Anopheles gambiae, UniProt Q7Q9J3); test: Fluorescence competitive binding test (FCBT), 1-NPN probe; set-up: species or system Anopheles gambiae s.s.
T1 sequence (Q7Q9J3 24-142): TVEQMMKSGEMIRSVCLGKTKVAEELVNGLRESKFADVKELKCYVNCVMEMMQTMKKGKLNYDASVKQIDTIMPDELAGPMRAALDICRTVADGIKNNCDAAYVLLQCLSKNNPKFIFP
Procedure: (§1) For recombinant OBPs, we first need to obtain the OBPs related genes. DNA of A. gambiae s.s. female adults was extracted following the procedure used in a previous study. The predicted AgamOBPs and AgamORs were detected using standard PCR with specific respective primers which were designed using Primer Premier 5 (Premier Biosoft, California, USA; Table S1). Each PCR mixture contained 1 μl of A. gambiae s.s. […] (200 ng·ml^−1; previously extracted using a DNA extraction kit from Transgen Biotech, Beijing, China), 12.5 μl prime STAR Max Premix (2 ×), 1.5 μl of each primer ([…]), and […] sterilized H2O. The PCR cycling conditions were as follows: an initial denaturation at 94 °C for 40 s, followed by 35 cycles at […] for 40 s (denaturing), 59 °C for 50 s (annealing) and 72 °C for 3 min. The PCR products were verified and sent for sequencing. Recombinant proteins were generated by transforming plasmids containing the verified […] genes into Escherichia coli BL21 (DE3) cells. We then induced recombinant protein expression using 1 mM isopropyl ß-D-1-thiogalactopyranoside at 37 °C for 6 h. The recombinant proteins were purified using two rounds of […] ion affinity chromatography (GE Healthcare, Milwaukee, WI, USA), following the manufacturer's instructions[5],[53]; the His-tags were removed simultaneously using recombinant enterokinase (Novagen, Madison, WI, USA), following the manufacturer's instructions. The purified proteins were desalted using extensive dialysis. The size and purity of each desalted protein were determined using 15% sodium dodecylsulphate-polyacrylamide gel electrophoresis (SDS-PAGE)[55].
(§2) This assay assumes that the receptors are 100% active, and that each receptor can only bind to one ligand[56].
(§3) Recombinant proteins were dissolved in 50 mM Tris–HCl protein buffer to yield a final concentration of […], respectively. The fluorescence competitive binding were conducted in a 1-cm quartz cell and the fluorescence intensity F95S fluorescence spectrophotometer (Shanghai Lengguang Technology Co., Ltd., Shanghai, China) at 25 °C with the following parameters: excitation of 10 nm; emission slit of 10 nm; sensitivity of 2 s; gain value of 2; excitation wavelength of 337 nm; and an emission wavelength range of 370–500 nm, as a previous study.
(§4) First, the binding constant (Kd) for each recombinant protein to the 1-N-phenyl-naphthylamine (1-NPN) fluorescent probe was detected. In brief, 2 ml of protein solution and 2 μl of 1-NPN solution were added to the quartz cell and thoroughly mixed for 1 min. Peak fluorescence was continuously recorded until it stabilized and began to decrease.
(§5) Next, the ligands were added to the quartz cell along with each receptor, in order to competitively bind to the fluorescent probe. In brief, 2 ml of protein solution and 2 ml of 1-NPN solution were added to the quartz cell, and the fluorescence peaks were scanned and recorded. Then, 2 μl of each ligand was added and allowed to sit for 1 min before the peak fluorescence was scanned and recorded. We then continued to add 2 μl aliquots of the ligand solution until the fluorescence was less than half of the initial value.
(§6) The binding curves were then linearized using a Scatchard plot, which calculates the concentration of the competitor that halves the initial fluorescence intensity (IC50).

AgamOBP4 = biological target: T2, AgamOBP4 (Anopheles gambiae, UniProt Q8T6R7); test: as above; set-up: species or system Anopheles gambiae s.s.
T2 sequence (Q8T6R7 26-150): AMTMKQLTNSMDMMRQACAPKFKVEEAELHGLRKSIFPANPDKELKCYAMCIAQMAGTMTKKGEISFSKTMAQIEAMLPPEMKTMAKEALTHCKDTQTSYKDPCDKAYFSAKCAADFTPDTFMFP
Procedure: as §1, §2, §3, §4, §5, §6

AgamOBP5 = biological target: T3, AgamOBP5 (Anopheles gambiae, UniProt Q8T6R6); test: as above; set-up: species or system Anopheles gambiae s.s.
T3 sequence (Q8T6R6 32-154): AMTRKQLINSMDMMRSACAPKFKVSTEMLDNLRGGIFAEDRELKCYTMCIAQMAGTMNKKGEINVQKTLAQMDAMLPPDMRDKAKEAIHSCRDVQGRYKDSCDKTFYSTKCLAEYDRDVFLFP
Procedure: as §1, §2, §3, §4, §5, §6

AgamORC7 = biological target: T4, AgamORC7 (Anopheles gambiae, UniProt Q7QCC7); test: as above; set-up: species or system Anopheles gambiae s.s.
T4 construct: His-tag (cleaved yes); made in house; host or cells: Escherichia coli BL21 (DE3)
T4 sequence (Q7QCC7 1-478): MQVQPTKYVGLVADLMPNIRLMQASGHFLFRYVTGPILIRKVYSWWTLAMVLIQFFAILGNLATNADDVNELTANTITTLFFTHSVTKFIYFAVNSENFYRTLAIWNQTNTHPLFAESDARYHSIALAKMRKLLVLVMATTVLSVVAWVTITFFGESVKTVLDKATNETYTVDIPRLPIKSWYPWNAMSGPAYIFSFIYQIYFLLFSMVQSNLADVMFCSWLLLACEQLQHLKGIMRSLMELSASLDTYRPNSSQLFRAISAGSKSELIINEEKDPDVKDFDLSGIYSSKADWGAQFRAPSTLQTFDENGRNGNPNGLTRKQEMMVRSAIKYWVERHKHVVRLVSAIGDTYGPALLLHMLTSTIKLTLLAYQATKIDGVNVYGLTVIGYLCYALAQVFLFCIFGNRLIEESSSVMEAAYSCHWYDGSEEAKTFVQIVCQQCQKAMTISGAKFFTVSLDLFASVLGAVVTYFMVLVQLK
Procedure: as §1, §2, §3, §4, §5, §6

[1] = system: Anopheles gambiae s.s. females; test: Dual-choice Y-tube olfactory meter repellency test; type: in vivo
Procedure: A glass Y-tube (1.6 cm i.d., 12-cm base , two 8-cm arms at a 45° angle from one another) olfactory meter described in our previous study was used in this experiment. […] The control cotton ball with triethyl citrate (without citronellal) was inserted into the other jar. Teflon tube was used to connect all parts of Y-tube olfactory meter. Fresh air was produced by an air pump at a rate of 200 ± 10 ml/min, and purified by active carbon and silicone before flowing into the jars. The headspace of citronellal volatile was combined with the purified air and went through one arm of the Y-tube while purified air without citronellal went through the other arm. The base of the Y-tube was connected to an air collection bottle. One hundred female A. gambiae s.s. were individually released in the air collection bottle (2-cm i.d., 8-cm high), where behavioral responses were monitored and recorded over a 300 s period. The collecting jar, Y-tubes, air collection bottle were cleaned with hot water (> 60 °C) after every 10 individuals were tested, and the cotton roll was renewed every 2 h. The olfactory test was repeated five times.

Row | Structure (SMILES) | Kd (AgamOBP20) | Kd (AgamOBP4) | Kd (AgamOBP5) | Kd (AgamORC7; Fig. 5 panel d, Scatchard, unit inferred) | repellent rate for 50% of individuals (RQ50) ([1]; Y-tube, quantity series 0.01-100 nmol on cotton ball, Probit analysis) | Lg(RQ50) ([1]; regression of citronellal quantity vs repellent rate, Fig. 1) | binding of citronellal in words (AgamOBP20; competition with 1-NPN) | IC50 (AgamOBP4; competition with 1-NPN, 25 °C) | Ki (AgamOBP4; competition with 1-NPN, 25 °C) | binding of citronellal in words (AgamOBP5; competition with 1-NPN) | IC50 (AgamORC7; competition with 1-NPN, 25 °C) | Ki (AgamORC7; competition with 1-NPN, 25 °C)
1 | c1ccc(Nc2cccc3ccccc23)cc1 [1-NPN, 1-N-phenyl-naphthylamine] | 2.17 µM | 1.14 µM | 2.44 µM | 1.12 µM | – | – | – | – | – | – | – | –
2 | CC(C)=CCCC(C)CC=O (stereo not drawn) [citronellal] | – | – | – | – | 4.02 nmol | 0.604 | could not reduce fluorescent rate down below 50%; also recorded: cannot bind well | 1.23 µM | 0.71 µM | could not reduce fluorescent rate down below 50%; also recorded: cannot bind well | 2.23 µM | 1.57 µM
